According to publication PMC6445164, “Primary mono- and bis-sulfonamides obtained via regiospecific sulfochlorination of N-arylpyrazoles: inhibition profile against a panel of human carbonic anhydrases” (Journal of Enzyme Inhibition and Medicinal Chemistry, 2017):
Read-outs that look alike come from different tables or passages of the source.

Columns and labels:
[1] = biological target: hCA IX; set-up: method as in PMID 26160114; conditions: Figure 2; cited from earlier work
[2] = biological target: hCA XII; set-up: method as in PMID 26160114; conditions: Figure 2; cited from earlier work
[3] = biological target: hCA I (Homo sapiens, UniProt P00915); assay: stopped-flow CA catalysed CO2 hydration assay, hCA I
Description: (§1) An applied photophysics stopped-flow instrument has been used for assaying the CA catalysed CO2 hydration activity[21]. […] The CO2 concentrations ranged from 1.7 to 17 mM for the determination of the kinetic parameters and inhibition constants. […] The uncatalysed rates were determined in the same manner and subtracted from the total observed rates. Stock solutions of inhibitor (0.1 mM) were prepared in distilled-deionized water and dilutions up to 0.005 nM were done thereafter with the assay buffer. Inhibitor and enzyme solutions were preincubated together for 15 min at room temperature prior to assay, in order to allow for the formation of the E–I complex. The inhibition constants were obtained by non-linear least-squares methods using PRISM 3 and the Cheng–Prusoff equation, as reported earlier, and represent the mean from at least three different determinations. All CA isoforms were recombinant ones obtained in-house[22–25].

[4] = biological target: hCA II (Homo sapiens, UniProt P00918); assay: stopped-flow CA catalysed CO2 hydration assay, hCA II
Description: as §1

[5] = biological target: hCA IV (Homo sapiens, UniProt P22748); assay: stopped-flow CA catalysed CO2 hydration assay, hCA IV
Description: as §1

[6] = biological target: hCA VII (Homo sapiens, UniProt P43166); assay: stopped-flow CA catalysed CO2 hydration assay, hCA VII
Chain of hCA VII (P43166 whole entry): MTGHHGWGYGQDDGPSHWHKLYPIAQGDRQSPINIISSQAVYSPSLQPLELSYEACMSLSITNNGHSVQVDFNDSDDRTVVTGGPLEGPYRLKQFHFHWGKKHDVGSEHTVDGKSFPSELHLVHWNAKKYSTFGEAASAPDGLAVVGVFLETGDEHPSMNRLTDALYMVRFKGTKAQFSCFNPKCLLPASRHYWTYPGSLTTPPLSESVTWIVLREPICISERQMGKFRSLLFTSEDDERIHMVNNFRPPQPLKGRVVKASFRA
Description: as §1

Chain of hCA I (P00915 whole entry): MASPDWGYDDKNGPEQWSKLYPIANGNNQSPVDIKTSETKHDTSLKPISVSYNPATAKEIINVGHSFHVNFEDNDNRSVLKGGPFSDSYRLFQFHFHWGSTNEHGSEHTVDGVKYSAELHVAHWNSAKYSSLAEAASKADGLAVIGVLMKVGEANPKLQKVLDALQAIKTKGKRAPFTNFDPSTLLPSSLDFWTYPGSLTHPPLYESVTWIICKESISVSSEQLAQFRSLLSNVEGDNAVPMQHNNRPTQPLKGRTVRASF
Chain of hCA IV (P22748 19-312): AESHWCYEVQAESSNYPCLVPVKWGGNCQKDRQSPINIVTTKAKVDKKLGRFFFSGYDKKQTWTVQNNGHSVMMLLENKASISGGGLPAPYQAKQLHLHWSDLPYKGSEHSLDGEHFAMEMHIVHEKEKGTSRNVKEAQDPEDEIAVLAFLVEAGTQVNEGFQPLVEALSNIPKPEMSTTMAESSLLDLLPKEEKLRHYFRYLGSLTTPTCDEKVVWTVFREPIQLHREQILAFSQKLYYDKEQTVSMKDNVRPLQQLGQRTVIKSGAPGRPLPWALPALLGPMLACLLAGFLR

Compound | melting point | Ki [3] | Ki [4] | Ki [5] | Ki [6] | also measured
NS(=O)(=O)c1ccc(-c2cnc(C(=O)N3CCCC3)o2)s1 [Compound 4] | – | – | – | – | – | Ki [1]: 18.7 nM; Ki [2]: 6.7 nM
Cc1ccccc1-n1nc(C)c(S(N)(=O)=O)c1C [Compound 8e, 3,5-Dimethyl-1-(2-methylphenyl)-^1H-pyrazole-4-sulfonamide] | 161 to 163 °C | 0.6 µM | 0.091 µM | > 10 µM | > 10 µM | –
Cc1cc(-n2cc(S(N)(=O)=O)cn2)ccc1S(N)(=O)=O [Compound 9g, 1-(3-Methyl-4-sulfamoylphenyl)-^1H-pyrazole-4-sulfonamide] | 205 to 207 °C | – | – | – | – | Ki ([3]; read-out: hCA Ki (μM) hCA I, recombinant enzyme, stopped-flow CO2 hydration, 15 min preincubation, pH 8.3): 0.1 µM; Ki ([4]; read-out: hCA Ki (μM) hCA II, recombinant enzyme, stopped-flow CO2 hydration, 15 min preincubation, pH 8.3): 0.049 µM; Ki ([5]; read-out: hCA Ki (μM) hCA IV, recombinant enzyme, stopped-flow CO2 hydration, 15 min preincubation, pH 8.3): 5.8 µM; Ki ([6]; read-out: hCA Ki (μM) hCA VII, recombinant enzyme, stopped-flow CO2 hydration, 15 min preincubation, pH 8.3): 0.005 µM
Cc1nn(-c2ccc(Cl)cc2)c(C)c1S(N)(=O)=O [Compound 8a, 1-(4-Chlorophenyl)-3,5-dimethyl-^1H-pyrazole-4-sulfonamide] | 164 to 166 °C | 0.76 µM | 5.33 µM | > 10 µM | > 10 µM | –
NS(=O)(=O)c1cnn(-c2ccc(Cl)cc2)c1 [Compound 8f, 1-(4-Chlorophenyl)-^1H-pyrazole-4-sulfonamide] | 147 to 150 °C | 0.19 µM | 0.082 µM | 7.06 µM | > 10 µM | –
COc1cc(-n2nc(C)cc2C)ccc1S(N)(=O)=O [Compound 7i, 4-(3,5-Dimethyl-^1H-pyrazol-1-yl)-2-methoxybenzenesulfonamide] | 156 to 158 °C | 8.85 µM | > 10 µM | > 10 µM | > 10 µM | –
NS(=O)(=O)c1cnn(-c2ccc(S(N)(=O)=O)c(Cl)c2)c1 [Compound 9p, 1-(3-Chloro-4-sulfamoylphenyl)-^1H-pyrazole-4-sulfonamide] | 195 to 197 °C | 3.08 µM | 0.008 µM | 0.075 µM | 0.48 µM | –
Cc1nn(-c2cccc(Cl)c2)c(C)c1S(N)(=O)=O [Compound 8g, 1-(3-Chlorophenyl)-3,5-dimethyl-^1H-pyrazole-4-sulfonamide] | 182 to 184 °C | 0.94 µM | 1.08 µM | 9.49 µM | 0.46 µM | –
Cc1nn(-c2ccccc2)c(C)c1S(N)(=O)=O [Compound 8b, 3,5-Dimethyl-1-phenyl-^1H-pyrazole-4-sulfonamide] | 161 to 163 °C | 0.54 µM | 0.28 µM | > 10 µM | 0.53 µM | –
Cc1cc(-n2nc(C)c(S(N)(=O)=O)c2C)ccc1S(N)(=O)=O [Compound 9f, 3,5-Dimethyl-1-(3-methyl-4-sulfamoylphenyl)-^1H-pyrazole-4-sulfonamide] | 143 to 146 °C | 0.47 µM | 0.002 µM | 0.022 µM | 0.019 µM | –
COc1ccc(S(N)(=O)=O)cc1-n1nc(C)cc1C [Compound 7k, 3-(3,5-Dimethyl-^1H-pyrazol-1-yl)-4-methoxybenzenesulfonamide] | 167 to 170 °C | > 10 µM | > 10 µM | > 10 µM | > 10 µM | hCA I inhibition, in words [3]: inactive throughout the panel; hCA II inhibition, in words [4]: inactive throughout the panel; hCA IV inhibition, in words [5]: inactive throughout the panel; hCA VII inhibition, in words [6]: inactive throughout the panel
Cc1cccc(-n2nc(C)c(S(N)(=O)=O)c2C)c1 [Compound 8d, 3,5-Dimethyl-1-(3-methylphenyl)-^1H-pyrazole-4-sulfonamide] | 174 to 176 °C | 0.27 µM | 0.24 µM | > 10 µM | 0.94 µM | –
Cc1cc(C)n(-c2ccc(S(N)(=O)=O)c(C)c2)n1 [Compound 7c, 4-(3,5-Dimethyl-^1H-pyrazol-1-yl)-2-methylbenzenesulfonamide] | 194 to 196 °C | 0.26 µM | 0.004 µM | 0.033 µM | 0.04 µM | –
